From PubChem BioAssay AID2060605 (Molecular Pharmacology Branch, DTP, NCI, 2025)
Values joined by “and” are separate entries in the source; they are usually repeats but may differ in a detail not shown here. Equal values may be shown once.

Tested on: 947758-054-R-J2-PDC spheroid growth, percent test/control
Test: Anticancer human tumor 947758-054-R-J2-PDC patient-derived colon adenocarcinoma cell line growth inhibition [CLK]
Details: spheroids with HUVEC and MSC; for viability, T/C: stronger effect = lower value
In short: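 Multi-cell-type spheroids combined patient-derived tumor cells with HUVEC endothelial cells and human mesenchymal stem cells. Paired agents were dosed in half-log steps down from about clinical Cmax, or from 10 microM where Cmax was unknown.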

[1] = curve of first compound, second compound 0.0316 µM
[2] = curve of first compound, second compound 0.1 µM
[3] = curve of first compound, second compound 0.316 µM
[4] = curve of first compound, second compound 1 µM
[5] = curve of first compound, second compound 3.16 µM
[6] = curve of first compound, second compound 10 µM
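Also: spheroids exposed to compounds for one week before readout.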
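For viability, T/C in this document: 100% = DMSO vehicle control wells.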

## COc1cccc2c1C(=O)c1c(O)c3c(c(O)c1C2=O)CC(O)(C(=O)CO)CC3OC1CC(N)C(O)C(C)O1 (stereo unspecified)
Compound 0.0316 µM
  viability, T/C: 94.6% and 56.2%
Compound 0.1 µM
  viability, T/C: 39.9% and 44.2%
Compound 0.316 µM
  viability, T/C: 22.5% and 26.6%
Compound 1 µM
  viability, T/C: 11.3%
Compound 3.16 µM
  viability, T/C: 0.28% and 0.34%
Compound 10 µM
  viability, T/C: 3.11% and 2.84%
Curve of compound
  IC50: 0.0849 µM and 0.0585 µM

## CC(C)CC(NC(=O)C(Cc1ccccc1)NC(=O)c1cnccn1)B(O)O (stereo unspecified) + CN1CCN(c2cc(C(=O)Nc3cc4cc(-c5cnn(C)c5)ccc4cn3)ccn2)CC1
[1]
  IC50: 0.00192 µM
[2]
  IC50: 0.00241 µM
[3]
  IC50: < 0.000949 µM
[4]
  IC50: < 0.000949 µM
[5]
  IC50: < 0.000949 µM
[6]
  IC50: < 0.000949 µM
Second compound 0.0316 µM, first compound 0.000949 µM
  viability, T/C: 121%
Second compound 0.0316 µM, first compound 0.003 µM
  viability, T/C: 5.43%
Second compound 0.0316 µM, first compound 0.00949 µM
  viability, T/C: 0.78%
Second compound 0.0316 µM, first compound 0.03 µM
  viability, T/C: 0.27%
Second compound 0.0316 µM, first compound 0.0949 µM
  viability, T/C: 0.29%
Second compound 0.0316 µM, first compound 0.3 µM
  viability, T/C: 0.27%
Second compound 0.1 µM, first compound 0.000949 µM
  viability, T/C: 229%
Second compound 0.1 µM, first compound 0.003 µM
  viability, T/C: 7.59%
Second compound 0.1 µM, first compound 0.00949 µM
  viability, T/C: 0.31%
Second compound 0.1 µM, first compound 0.03 µM
  viability, T/C: 0.29%
Second compound 0.1 µM, first compound 0.0949 µM
  viability, T/C: 0.32%
Second compound 0.1 µM, first compound 0.3 µM
  viability, T/C: 0.3%
Second compound 0.316 µM, first compound 0.000949 µM
  viability, T/C: 1.38%
Second compound 0.316 µM, first compound 0.003 µM
  viability, T/C: 0.21%
Second compound 0.316 µM, first compound 0.00949 µM
  viability, T/C: 0.22%
Second compound 0.316 µM, first compound 0.03 µM
  viability, T/C: 0.22%
Second compound 0.316 µM, first compound 0.0949 µM
  viability, T/C: 0.2%
Second compound 0.316 µM, first compound 0.3 µM
  viability, T/C: 0.23%
Second compound 1 µM, first compound 0.000949 µM
  viability, T/C: 0.14%
Second compound 1 µM, first compound 0.003 µM
  viability, T/C: 0.15%
Second compound 1 µM, first compound 0.00949 µM
  viability, T/C: 0.15%
Second compound 1 µM, first compound 0.03 µM
  viability, T/C: 0.16%
Second compound 1 µM, first compound 0.0949 µM
  viability, T/C: 0.18%
Second compound 1 µM, first compound 0.3 µM
  viability, T/C: 0.15%
Second compound 3.16 µM, first compound 0.000949 µM
  viability, T/C: 0.21%
Second compound 3.16 µM, first compound 0.003 µM
  viability, T/C: 0.12%
Second compound 3.16 µM, first compound 0.00949 µM
  viability, T/C: 0.12%
Second compound 3.16 µM, first compound 0.03 µM
  viability, T/C: 0.13%
Second compound 3.16 µM, first compound 0.0949 µM
  viability, T/C: 0.21%
Second compound 3.16 µM, first compound 0.3 µM
  viability, T/C: 2.33%
Second compound 10 µM, first compound 0.000949 µM
  viability, T/C: 0.34%
Second compound 10 µM, first compound 0.003 µM
  viability, T/C: 0.18%
Second compound 10 µM, first compound 0.00949 µM
  viability, T/C: 1.25%
Second compound 10 µM, first compound 0.03 µM
  viability, T/C: 0.16%
Second compound 10 µM, first compound 0.0949 µM
  viability, T/C: 0.21%
Second compound 10 µM, first compound 0.3 µM
  viability, T/C: 1.68%

## CC1COCCN1c1cc(C2(S(C)(=N)=O)CC2)nc(-c2ccnc3[nH]ccc23)n1 (stereo unspecified) + CNC(=O)c1ccc(Nc2nc(OC3CCCC3)c3c(-c4ccc5nc(C)oc5c4)c[nH]c3n2)c(OC)c1
[1]
  IC50: 3.05 µM
[2]
  IC50: 2.22 µM
[3]
  IC50: 1.82 µM
[4]
  IC50: 0.308 µM
[5]
  IC50: 0.196 µM
[6]
  IC50: < 0.0316 µM
Second compound 0.0316 µM, first compound 0.0316 µM
  viability, T/C: 95.8%
Second compound 0.0316 µM, first compound 0.1 µM
  viability, T/C: 103%
Second compound 0.0316 µM, first compound 0.316 µM
  viability, T/C: 114%
Second compound 0.0316 µM, first compound 1 µM
  viability, T/C: 87%
Second compound 0.0316 µM, first compound 3.16 µM
  viability, T/C: 49.7%
Second compound 0.0316 µM, first compound 10 µM
  viability, T/C: 22.2%
Second compound 0.1 µM, first compound 0.0316 µM
  viability, T/C: 110%
Second compound 0.1 µM, first compound 0.1 µM
  viability, T/C: 105%
Second compound 0.1 µM, first compound 0.316 µM
  viability, T/C: 91.6%
Second compound 0.1 µM, first compound 1 µM
  viability, T/C: 88.8%
Second compound 0.1 µM, first compound 3.16 µM
  viability, T/C: 32.8%
Second compound 0.1 µM, first compound 10 µM
  viability, T/C: 18.8%
Second compound 0.316 µM, first compound 0.0316 µM
  viability, T/C: 90.5%
Second compound 0.316 µM, first compound 0.1 µM
  viability, T/C: 93%
Second compound 0.316 µM, first compound 0.316 µM
  viability, T/C: 71.8%
Second compound 0.316 µM, first compound 1 µM
  viability, T/C: 68%
Second compound 0.316 µM, first compound 3.16 µM
  viability, T/C: 36%
Second compound 0.316 µM, first compound 10 µM
  viability, T/C: 13.2%
Second compound 1 µM, first compound 0.0316 µM
  viability, T/C: 72.4%
Second compound 1 µM, first compound 0.1 µM
  viability, T/C: 53.3%
Second compound 1 µM, first compound 0.316 µM
  viability, T/C: 48.5%
Second compound 1 µM, first compound 1 µM
  viability, T/C: 45.8%
Second compound 1 µM, first compound 3.16 µM
  viability, T/C: 22%
Second compound 1 µM, first compound 10 µM
  viability, T/C: 8.76%
Second compound 3.16 µM, first compound 0.0316 µM
  viability, T/C: 66.8%
Second compound 3.16 µM, first compound 0.1 µM
  viability, T/C: 43.6%
Second compound 3.16 µM, first compound 0.316 µM
  viability, T/C: 47.2%
Second compound 3.16 µM, first compound 1 µM
  viability, T/C: 45.7%
Second compound 3.16 µM, first compound 3.16 µM
  viability, T/C: 19.3%
Second compound 3.16 µM, first compound 10 µM
  viability, T/C: 8.82%
Second compound 10 µM, first compound 0.0316 µM
  viability, T/C: 50.7%
Second compound 10 µM, first compound 0.1 µM
  viability, T/C: 44.7%
Second compound 10 µM, first compound 0.316 µM
  viability, T/C: 40.5%
Second compound 10 µM, first compound 1 µM
  viability, T/C: 26.7%
Second compound 10 µM, first compound 3.16 µM
  viability, T/C: 15.1%
Second compound 10 µM, first compound 10 µM
  viability, T/C: 9.5%
